Reference: patent US12398151B2, “Sumo inhibitor compounds and uses thereof” (SUVALENT THERAPEUTICS, INC., priority 2019, dated 2025)
Read-outs that look alike come from different tables or passages of the source.

What was measured:
SUMO E1 = biological target: T1, SUMO E1 (Homo sapiens, UniProt Q9UBT2); assay: SUMO E1 inhibition: UBC9-SUMO1 conjugation by SDS gel electrophoresis; assay type: biochemical; conditions: for inhibition at 25 µM / SUMO E1 percent inhibition of adduct formation: 25 uM compound; for inhibition at 10 µM: 10 uM compound; for SUMO E1 percent inhibition of adduct formation: 25 µM
T1 sequence (Q9UBT2 1-640): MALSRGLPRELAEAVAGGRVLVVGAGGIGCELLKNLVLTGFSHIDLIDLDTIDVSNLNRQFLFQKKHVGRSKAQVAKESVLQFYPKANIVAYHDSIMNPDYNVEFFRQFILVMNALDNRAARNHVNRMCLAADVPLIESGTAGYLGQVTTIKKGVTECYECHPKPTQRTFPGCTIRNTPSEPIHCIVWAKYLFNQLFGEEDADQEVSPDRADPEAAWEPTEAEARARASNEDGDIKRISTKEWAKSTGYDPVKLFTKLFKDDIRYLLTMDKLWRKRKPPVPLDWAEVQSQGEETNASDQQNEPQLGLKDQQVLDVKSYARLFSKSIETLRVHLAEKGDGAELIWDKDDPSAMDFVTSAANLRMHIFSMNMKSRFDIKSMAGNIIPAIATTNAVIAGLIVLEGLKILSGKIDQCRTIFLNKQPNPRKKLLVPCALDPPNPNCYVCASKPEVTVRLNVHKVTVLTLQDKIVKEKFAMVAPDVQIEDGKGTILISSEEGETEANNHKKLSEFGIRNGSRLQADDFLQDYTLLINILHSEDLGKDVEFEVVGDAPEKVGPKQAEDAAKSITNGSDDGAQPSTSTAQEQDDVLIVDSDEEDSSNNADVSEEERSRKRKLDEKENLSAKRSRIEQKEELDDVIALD
T1 sequence (Q9UBE0 1-346 partner): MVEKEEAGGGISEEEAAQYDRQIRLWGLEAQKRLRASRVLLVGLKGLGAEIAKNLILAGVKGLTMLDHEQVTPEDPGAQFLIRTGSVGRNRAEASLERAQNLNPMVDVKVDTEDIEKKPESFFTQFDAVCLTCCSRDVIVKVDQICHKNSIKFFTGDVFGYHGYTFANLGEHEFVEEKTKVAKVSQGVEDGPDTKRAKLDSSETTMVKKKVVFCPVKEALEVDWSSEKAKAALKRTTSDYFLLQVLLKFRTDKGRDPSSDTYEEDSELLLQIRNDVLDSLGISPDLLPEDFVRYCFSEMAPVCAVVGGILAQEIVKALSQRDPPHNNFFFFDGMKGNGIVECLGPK
Experimental: (§1) Compounds are evaluated for their inhibitory effect on activating enzymes (E1) of ubiquitin, SUMO, Nedd8, Urm1, ISG15 or Atg7 using previously reported methods and protocols. One example is in: Allosteric inhibition of ubiquitin-like modifications by a class of inhibitor of SUMO-activating enzyme. Cell Chemical Biology, 26, 1-11, 2019. PMID: 28051857.
(§2) Compounds are tested in the following manner. The compound and SUMO E1 are incubated for a predetermined amount of time. UBC9, SUMO1, and ATP are added to the E1-compound mixture and incubated at 37° C. The reaction is quenched with Laemmli Buffer. The UBC9-SUMO1 conjugation is analyzed via SDS gel electrophoresis. The percent inhibition is measured by the intensity of the UBC9-SUMO1 band compared to the no compound control. Activities are listed as compound concentration (uM), preincubation time of E1 with compound (min), and percent inhibition of adduct formation (%). […]

Atg7 = biological target: T2, Atg7 (Homo sapiens, UniProt O95352); assay: Atg7 activating enzyme (E1) inhibition; assay type: biochemical; conditions: 25 uM compound, 60 min preincubation; for inhibition at 25 µM: read-out: Atg7 percent inhibition of adduct formation
T2 sequence (O95352 1-703): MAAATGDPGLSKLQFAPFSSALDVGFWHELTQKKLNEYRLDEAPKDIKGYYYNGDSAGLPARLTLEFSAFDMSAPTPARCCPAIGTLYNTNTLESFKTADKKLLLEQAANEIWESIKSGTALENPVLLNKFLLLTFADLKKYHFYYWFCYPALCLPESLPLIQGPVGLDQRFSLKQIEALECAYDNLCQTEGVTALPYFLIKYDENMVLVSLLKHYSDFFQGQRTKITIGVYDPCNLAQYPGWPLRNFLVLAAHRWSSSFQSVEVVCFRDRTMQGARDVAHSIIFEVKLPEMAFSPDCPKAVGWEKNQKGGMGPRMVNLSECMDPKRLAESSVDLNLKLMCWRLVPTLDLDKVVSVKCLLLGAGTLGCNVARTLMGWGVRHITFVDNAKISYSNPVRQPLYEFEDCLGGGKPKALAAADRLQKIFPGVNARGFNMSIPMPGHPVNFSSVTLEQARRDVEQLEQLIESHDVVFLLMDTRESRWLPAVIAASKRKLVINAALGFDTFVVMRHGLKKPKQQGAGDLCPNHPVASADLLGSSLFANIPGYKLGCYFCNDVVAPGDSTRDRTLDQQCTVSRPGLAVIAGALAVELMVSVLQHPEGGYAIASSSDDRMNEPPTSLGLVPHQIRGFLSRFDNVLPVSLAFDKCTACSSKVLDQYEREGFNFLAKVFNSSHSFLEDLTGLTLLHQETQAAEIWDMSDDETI
Experimental: as §1, §2

[1] = 60 min preincubation, read-out: SUMO E1 percent inhibition of adduct formation
[2] = 30 min preincubation, read-out: SUMO E1 percent inhibition of adduct formation

SMILES	inhibition at 25 µM (SUMO E1; [1]) [%]	inhibition at 25 µM (Atg7) [%]	also measured
C=CC(=O)N1Cc2ccc(-c3ccccc3)cc2[C@@H](c2ccccc2)C1 [Compound 38]	< 1	< 1	
C=CC(=O)N1Cc2ccc(CCO)cc2[C@@H](c2ccccc2)C1 [Compound 40]	< 1	< 1	
C=CC(=O)N1Cc2ccccc2[C@@H](c2c(F)cccc2F)C1 [Compound 43]	< 1	< 1	
C=CC(=O)N1Cc2ccccc2[C@@H](c2cccc(O)c2)C1 [Compound 45]	< 1	< 1	
C=CC(=O)N1Cc2ccc(Br)cc2[C@@H](c2ccccc2Cl)C1 [Compound 46]		< 1	inhibition at 9 µM (SUMO E1; 9 uM compound, 30 min preincubation, read-out: SUMO E1 percent inhibition of adduct formation): 50%
C=CC(=O)N1Cc2cc(OCC(C)C)ccc2[C@@H](c2ccccc2)C1 [Compound 48]	30	< 1	
C=CC(=O)N1Cc2cc(OCc3ccccc3)ccc2[C@@H](c2ccccc2)C1 [Compound 49]	< 1	< 1	
C=CC(=O)Nc1cccc([C@H]2CN(C(=O)C=C)Cc3ccccc32)c1 [Compound 52]	50	< 1	
C=CC(=O)N1CCc2cc(Oc3cccc(C)c3)ccc2C1 [Compound 53]	< 1	< 1	
C=CC(=O)N1CCc2cc(Oc3cccnc3)ccc2C1 [Compound 54]	10	< 1	
C=CC(=O)N1Cc2ccc(Br)cc2[C@@H](c2ccccc2Br)C1 [Compound 55]	50	< 1	
C=CC(=O)N1Cc2ccc(Br)cc2[C@@H](c2c(Cl)cccc2Cl)C1 [Compound 56]	< 1	< 1	
C=CC(=O)N1Cc2ccc(Br)cc2[C@@H](c2ccccc2C(F)(F)F)C1 [Compound 57]	90	< 1	
C=CC(=O)N1Cc2ccc(Br)cc2[C@@H](c2ccccc2C)C1 [Compound 58]	95	< 1	
C=CC(=O)N1Cc2ccccc2[C@@](C)(c2ccccc2)C1 [Compound 59]	40	< 1	
C=CC(=O)N1Cc2cccc(Br)c2[C@@H](c2ccccc2)C1 [Compound 62]	5	< 1	
C=CC(=O)N1Cc2ccc(Br)cc2[C@@H](c2ccc(Cl)cc2)C1 [Compound 65]		< 1	SUMO E1 percent inhibition of adduct formation (SUMO E1; 60 min preincubation): 25 uM 60 min 10%
C=CC(=O)N1Cc2ccc(Br)cc2[C@@H](c2ccc(Cl)cc2)C1 [Compound 66]			SUMO E1 percent inhibition of adduct formation (SUMO E1; 60 min preincubation): 25 uM 60 min <1%; Atg7 percent inhibition of adduct formation (Atg7): 25 uM 60 min <1%
C=CC(=O)N1C[C@H](c2ccccc2)c2cc(Br)ccc2C1(C)C [Compound 67]	< 1	< 1	
C=CC(=O)N1Cc2cccc(Br)c2[C@@H](c2ccccc2C)C1 [Compound 69]		< 1	inhibition at 10 µM (SUMO E1; [1]): 60%
C=CC(=O)N1Cc2cc(Br)ccc2[C@@H](c2ccccc2OC)C1 [Compound 70]		< 1	inhibition at 10 µM (SUMO E1; [1]): 60%
C=CC(=O)N1Cc2cccc(Br)c2[C@@H](c2ccccc2OC)C1 [Compound 71]	20	< 1	
C=CC(=O)N1Cc2cc(Cl)ccc2[C@@H](c2ccccc2C)C1 [Compound 75]		< 1	inhibition at 10 µM (SUMO E1; [1]): 100%
C=CC(=O)N1Cc2cccc(Cl)c2[C@@H](c2ccccc2C)C1 [Compound 76]	< 1	< 1	
C=CC(=O)N1Cc2cc(Br)ccc2[C@@H](c2ccccc2O)C1 [Compound 77]	20	30	
C=CC(=O)N1Cc2cc(Cl)ccc2[C@@H](c2ccccn2)C1 [Compound 80]		< 1	inhibition at 25 µM (SUMO E1; [2]): 50%
C=CC(=O)N1Cc2cc(C)ccc2[C@@H](c2ccccc2C)C1 [Compound 85]		< 1	inhibition at 10 µM (SUMO E1; [2]): 100%
C=CC(=O)N1Cc2cccc(C)c2[C@@H](c2ccccc2C)C1 [Compound 86]		< 1	inhibition at 10 µM (SUMO E1; [2]): < 1%

The next lines start with results.

inhibition at 25 µM (SUMO E1; [1]) [%]	inhibition at 25 µM (Atg7) [%]	SMILES	also measured
< 1	< 1	C=CC(=O)N1Cc2ccc(C(C)C)cc2[C@@H](c2ccccc2)C1 [Compound 39]	
< 1	< 1	C=CC(=O)N1Cc2ccc(CC)cc2[C@@H](c2ccccc2)C1 [Compound 41]	
< 1	< 1	C=CC(=O)N1Cc2cc(OC)ccc2[C@@H](c2ccccc2)C1 [Compound 42]	
< 1	< 1	C=CC(=O)N1Cc2c(C)cc(Br)cc2[C@@H](c2ccccc2)C1 [Compound 47]	
40	< 1	C=CC(=O)N1Cc2ccc(OC)cc2[C@@H](c2ccccc2)C1 [Compound 60]	
	< 1	C=CC(=O)N1Cc2cc(Br)ccc2[C@@H](c2ccccc2)C1 [Compound 61]	inhibition at 10 µM (SUMO E1; [1]): 100%
	< 1	C=CC(=O)N1Cc2ccc(Cl)cc2[C@@H](c2ccccc2)C1 [Compound 63]	inhibition at 10 µM (SUMO E1; [1]): 50%
	< 1	C=CC(=O)N1Cc2cc(Cl)ccc2[C@@H](c2ccccc2)C1 [Compound 64]	inhibition at 10 µM (SUMO E1; [1]): 100%
	< 1	C=CC(=O)N1Cc2sc(Br)cc2[C@@H](c2ccccc2C)C1 [Compound 72]	inhibition at 10 µM (SUMO E1; [1]): 100%
	< 1	C=CC(=O)N1Cc2sc(Cl)cc2[C@@H](c2ccccc2)C1 [Compound 73]	inhibition at 10 µM (SUMO E1; [1]): 100%
10	< 1	C=CC(=O)N1Cc2sc(C)cc2[C@@H](c2ccccc2)C1 [Compound 74]	
< 1	< 1	C=CC(=O)N1Cc2cc(C#N)ccc2[C@@H](c2ccccc2)C1 [Compound 79]	
	< 1	C=CC(=O)N1Cc2sc(CC)cc2[C@@H](c2ccccc2)C1 [Compound 82]	inhibition at 10 µM (SUMO E1; [2]): 10%
	< 1	C=CC(=O)N1Cc2oc(C)cc2[C@@H](c2ccccc2)C1 [Compound 83]	inhibition at 10 µM (SUMO E1; [2]): < 1%
	< 1	C=CC(=O)N1Cc2sc(Cl)cc2[C@@H](c2ccccc2C)C1 [Compound 84]	inhibition at 2.5 µM (SUMO E1; 2.5 uM compound, 30 min preincubation, read-out: SUMO E1 percent inhibition of adduct formation): 90%
